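Assay format: 96-well plates, 48-hour exposure. Here, GI50 denotes the concentration required for 50% inhibition of growth. The concentration for full growth arrest is given as TGI.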
Columns and labels:
Assay in all cases: NCI tumour cell line growth inhibition, 48 h
[1] = system: ACHN renal
[2] = system: BT-549 breast
[3] = system: EKVX NSCLC
[4] = system: HL-60(TB) leukemia
[5] = system: HOP-62 NSCLC
[6] = system: MOLT-4 leukemia
[7] = system: NCI-H226 lung
[8] = system: NCI-H460 lung
[9] = system: NCI-H522 lung
[10] = system: SK-MEL-5 melanoma

Compound `COc1ccc(C(NCCNC(c2ccc(OC)c(OC)c2)c2cc3c(cc2O)OCO3)c2cc3c(cc2O)OCO3)cc1OC` (stereo unspecified) has a TGI [1] of 7.95 µM, a TGI [2] of 6.22 µM and a TGI [3] of 18.7 µM. For the same compound, the TGI [4] was 4.69 µM, the TGI [5] was 30.6 µM and the TGI [6] was > 100 µM. The TGI [7] was 39.1 µM, the TGI [8] was 18.3 µM and the TGI [9] was 3.52 µM. It also gave a TGI [10] of 19.9 µM.

For `CCN=C(N)CSS(=O)(=O)O`, the TGI [1] was > 100 µM, the TGI [2] was > 100 µM and the TGI [3] was > 100 µM. The TGI [4] was > 100 µM, the TGI [5] was > 100 µM and the TGI [6] was > 100 µM. The TGI [7] was > 100 µM, the TGI [8] was > 100 µM and the TGI [9] was > 100 µM. For the same compound, the TGI [10] was > 100 µM.

`c1ccc(CNc2nc(Nc3ccc(-c4nc5ccccc5[nH]4)cc3)c3cn[nH]c3n2)cc1` was tested, and the GI50 [1] was 2.29 µM, the TGI [1] was 6.5 µM and the GI50 [2] was 2.03 µM. It also gave a TGI [2] of 5.27 µM, a GI50 [3] of 3.27 µM and a TGI [3] of 23.6 µM. For the same compound, the GI50 [4] was 2.54 µM, the TGI [4] was 7.44 µM and the GI50 [5] was 2.17 µM. For the same compound, the TGI [5] was 5.48 µM, the GI50 [6] was 2.43 µM and the TGI [6] was 6.33 µM. The GI50 [7] was 2.98 µM, the TGI [7] was 8.43 µM and the GI50 [8] was 2.18 µM. For the same compound, the TGI [8] was 5.76 µM, the GI50 [9] was 2.24 µM and the TGI [9] was 5.68 µM. The GI50 [10] was 1.74 µM and the TGI [10] was 3.3 µM.

`COc1cc2c(c(Br)c1N)-c1cc(Br)c(N)cc1C2=O` was tested, and the GI50 [1] was > 100 µM, the TGI [1] was > 100 µM and the GI50 [2] was > 24.8 µM. The TGI [2] was > 100 µM, the GI50 [3] was 9.99 µM and the TGI [3] was > 100 µM. For the same compound, the GI50 [4] was > 100 µM, the TGI [4] was > 100 µM and the GI50 [5] was 10.1 µM. The TGI [5] was > 100 µM, the GI50 [6] was > 100 µM and the TGI [6] was > 100 µM. The GI50 [8] was 3.21 µM, the TGI [8] was > 100 µM and the GI50 [9] was 9.15 µM. For the same compound, the TGI [9] was 59.6 µM, the GI50 [10] was 5.39 µM and the TGI [10] was > 100 µM.

With `O=C(Nc1ccc(Cl)cc1)C(=O)C1=C(O)c2ccccc2OC1` the TGI [1] was > 100 µM, the TGI [2] was > 100 µM and the TGI [3] was > 100 µM. The TGI [4] was > 100 µM, the TGI [6] was > 100 µM and the TGI [7] was > 100 µM. For the same compound, the TGI [8] was > 100 µM, the TGI [9] was > 100 µM and the TGI [10] was > 100 µM.

Compound `CC[C@]12C=CCN3CC[C@]4(C(=C(C(=O)OC)C1)Nc1ccccc14)[C@@H]32` has a GI50 [1] of 2.07 µM, a TGI [1] of 4.54 µM and a GI50 [2] of 8.71 µM. The TGI [2] was 21.6 µM, the GI50 [3] was 5.99 µM and the TGI [3] was 22.4 µM. The GI50 [4] was 3.18 µM, the TGI [4] was 11.5 µM and the GI50 [5] was 9.78 µM. The TGI [5] was 28.4 µM, the GI50 [6] was 3.16 µM and the TGI [6] was 14.7 µM. The GI50 [8] was 4.11 µM, the TGI [8] was 16.3 µM and the GI50 [9] was 3.24 µM. For the same compound, the TGI [9] was 14.1 µM, the GI50 [10] was 4.87 µM and the TGI [10] was 16.8 µM.

Work on `Cc1nc(N=C(N)N)nc2ccc3ccccc3c12` yielded a GI50 [1] of 1.79 µM, a TGI [1] of 5.15 µM and a GI50 [2] of 2.67 µM. It also gave a TGI [2] of 7.96 µM, a GI50 [4] of 2.25 µM and a TGI [4] of 5.41 µM. It also gave a GI50 [5] of 1.25 µM, a TGI [5] of 3.6 µM and a GI50 [6] of 1.37 µM. For the same compound, the TGI [6] was 3.62 µM, the GI50 [7] was 1.29 µM and the TGI [7] was 3.58 µM. The GI50 [8] was 2.31 µM, the TGI [8] was 6.56 µM and the GI50 [9] was 1.04 µM. For the same compound, the TGI [9] was 2.5 µM, the GI50 [10] was 1.51 µM and the TGI [10] was 3.32 µM.

`CC1(C)CCC(CN2CCN(c3ccc(C(=O)NS(=O)(=O)c4ccc(NCC5CCOCC5)c([N+](=O)[O-])c4)c(Oc4cnc5[nH]ccc5c4)c3)CC2)=C(c2ccc(Cl)cc2)C1` was tested, and the GI50 [1] was 2.93 µM, the TGI [1] was 10.2 µM and the GI50 [2] was 3.13 µM. For the same compound, the TGI [2] was 8.66 µM, the GI50 [4] was 0.25 µM and the TGI [4] was 2.33 µM. It also gave a GI50 [5] of 4.1 µM, a TGI [5] of 15.8 µM and a GI50 [6] of 2.15 µM. It also gave a TGI [6] of 5.27 µM, a GI50 [7] of 2.36 µM and a TGI [7] of 6.9 µM. The GI50 [8] was 2.64 µM, the TGI [8] was 8.86 µM and the GI50 [9] was 2.46 µM. The TGI [9] was 7.23 µM, the GI50 [10] was 1.67 µM and the TGI [10] was 3.09 µM.

— PubChem BioAssay (NCI)
